Columns and labels:
Type in all cases: cell-based
Cryptococcus neoformans = test: in vitro antifungal activity, minimum inhibitory concentration (MIC), Cryptococcus neoformans
Description: (§1) The antifungal activity of two exemplary phosphocholines prepared using the method of the invention, i.e., (1) synthetic 1,22-Bis-[2-(trimethylammonium)ethylphosphatyl] docosane obtained using the stepwise synthetic route and, (2) synthetic 1,22-Bis-[2-(trimethylammonium)ethyl-phosphatyl] docosane obtained using the one-pot one step route, as well as the antifungal activity of (3) the natural product isolated from Irbachia alata identified as 1,22-Bis-[2-(trimethylammonium)ethyl-phosphatyl] docosane (see International Application filed Oct. 8, 1993 was determined in vitro using three fungal cultures--Candida albicans (CA), Cryptococcus neoformans (CN), and Aspergillus fumigatus (CF). The method used to determine in vitro antifungal activity is described in McGinnis, M. R., Laboratory Handbook of Medical Mycology, Academic Press, New York, London, p 412-416 (1980); and Drouget, E.; Dupont, B.; Improvisi, L.; Vivian, M. A.; and Tortorano, A. M.; "Disc agar difusion and microplate automatized techniques for in vitro evaluation of antifungal agents on yeast and sporulated pathogenic fungi" in In Vitro and In Vivo Evaluation of Antifungal Agents, Eds. Iwata, K. and Vanden Bossche, H., Elsevier Science Publishers, New York, Oxford, p 303 (1986). The minimum inhibitory concentration (MIC) for each is summarized in Table I. Partial inhibition of the fungus of between 25% to 75% was also measured. A description of the partial inhibition measurement can be found in R. L. Stiller, et al, The Journal of Infectious Diseases, 147, No 6 (1983).

Aspergillus fumigatus [1] = test: partial inhibition of the fungus, Aspergillus fumigatus; settings: in vitro, partial inhibition of between 25% to 75%
Description: as §1, with “The minimum inhibitory concentration (MIC) for each is summarized in Table I. Partial inhibition of the fungus of between 25% to 75% was also measured. A description of the partial inhibition measurement can be found in R. L. Stiller, et al, The Journal of Infectious Diseases, 147, No 6 (1983).” left out

Candida albicans = test: in vitro antifungal activity, minimum inhibitory concentration (MIC), Candida albicans
Description: as §1

Aspergillus fumigatus [2] = test: in vitro antifungal activity, minimum inhibitory concentration (MIC), Aspergillus fumigatus
Description: as §1

MIC CN (Cryptococcus neoformans) [µg/mL]	MIC (Candida albicans) [µg/mL]	MIC (Aspergillus fumigatus [2]) [µg/mL]	MIC CA (Candida albicans) [µg/mL]	MIC AF (Aspergillus fumigatus [2]) [µg/mL]	SMILES	Partial inhibition AF (Aspergillus fumigatus [1]) [µg/mL]
0.08					C[N+](C)(C)CCOP(=O)([O-])OCCCCCCCCCCCCCCCCCCCCCCOP(=O)([O-])OCC[N+](C)(C)C [Synthetic 1,22-Bis[2-trimethyl-ammonium)ethyl phosphatyl] do] [1,22-Bis [2-(trimethylammonium)ethylphosphatyl] docosane]	0.02
	1.25	0.08			C[N+](C)(C)CCOP(=O)([O-])OCCCCCCCCCCCCCCCCCCCCCCOP(=O)([O-])OCC[N+](C)(C)C [1,22-Bis [2-(trimethylammonium)ethylphosphatyl] docosane]	
< 0.04			1.25	0.08	C[N+](C)(C)CCOP(=O)([O-])OCCCCCCCCCCCCCCCCCCCCCCOP(=O)([O-])OCC[N+](C)(C)C [Isolated Natural Product 1,22-Bis[2[(trimethyl ammonium)ethy] [1,22-Bis-[2-(trimethylammonium)ethyl-phosphatyl] docosane]	
< 0.1			0.8	< 0.1	C[N+](C)(C)CCOP(=O)([O-])OCCCCCCCCCCCCCCCCCCCCCCOP(=O)([O-])OCC[N+](C)(C)C [Synthetic 1,22-Bis[2-(trimethyl-ammonium)ethyl phosphatyl] d] [1,22-Bis [2-(trimethylammonium)ethylphosphatyl] docosane]	0.1

From patent US5811568A, “Process for the preparation of mono- and bis(phosphocholine) derivatives which have antifungal activity” (Shaman Pharmaceuticals, Inc., priority 1994, dated 1998)
